Assay results published in PubChem BioAssay AID1845219 (Molecular Pharmacology Branch, DTP, NCI, 2023).

System: SYO-1 tumor spheroids, viability % test/control
Experiment: Anticancer human tumor SYO-1 cell line growth inhibition;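 also: spheroids exposed to agents for 7 days before viability read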;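 as to viability, T/C: 100% = DMSO vehicle control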
Details: spheroids with HUVEC and MSC; for IC50: curve of first compound; for viability, T/C: stronger effect = lower value
How it was run: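 Single agents and combinations were tested on spheroids built from tumor cells plus HUVEC and hMSC, at half-log dilutions starting at or near clinical Cmax, else 10 microM; final DMSO 0.25% (v/v).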

[1] = second compound 0.003 µM, first compound 0.0316 µM
[2] = second compound 0.003 µM, first compound 0.1 µM
[3] = second compound 0.003 µM, first compound 0.316 µM
[4] = second compound 0.003 µM, first compound 1 µM
[5] = second compound 0.003 µM, first compound 3.16 µM
[6] = second compound 0.003 µM, first compound 10 µM
[7] = second compound 0.00949 µM, first compound 0.0316 µM
[8] = second compound 0.00949 µM, first compound 0.1 µM
[9] = second compound 0.00949 µM, first compound 0.316 µM
[10] = second compound 0.00949 µM, first compound 1 µM
[11] = second compound 0.00949 µM, first compound 3.16 µM
[12] = second compound 0.00949 µM, first compound 10 µM
[13] = second compound 0.03 µM, first compound 0.0316 µM
[14] = second compound 0.03 µM, first compound 0.1 µM
[15] = second compound 0.03 µM, first compound 0.316 µM
[16] = second compound 0.03 µM, first compound 1 µM
[17] = second compound 0.03 µM, first compound 3.16 µM
[18] = second compound 0.03 µM, first compound 10 µM
[19] = second compound 0.0949 µM, first compound 0.0316 µM
[20] = second compound 0.0949 µM, first compound 0.1 µM
[21] = second compound 0.0949 µM, first compound 0.316 µM
[22] = second compound 0.0949 µM, first compound 1 µM
[23] = second compound 0.0949 µM, first compound 3.16 µM
[24] = second compound 0.0949 µM, first compound 10 µM
[25] = second compound 0.3 µM, first compound 0.0316 µM
[26] = second compound 0.3 µM, first compound 0.1 µM
[27] = second compound 0.3 µM, first compound 0.316 µM
[28] = second compound 0.3 µM, first compound 1 µM
[29] = second compound 0.3 µM, first compound 3.16 µM
[30] = second compound 0.3 µM, first compound 10 µM

## CC(C)n1c(=O)n(C)c2cnc3cc(F)c(-c4ccc(OCCCN5CCCCC5)nc4)cc3c21 + CC[C@@]1(O)C(=O)OCc2c1cc1n(c2=O)Cc2cc3c(CN(C)C)c(O)ccc3nc2-1
Second compound 0.003 µM
  IC50: < 31.6 nM
Second compound 0.00949 µM
  IC50: < 31.6 nM
Second compound 0.03 µM
  IC50: < 31.6 nM
Second compound 0.0949 µM
  IC50: < 31.6 nM
Second compound 0.3 µM
  IC50: < 31.6 nM
[1]
  viability, T/C: 7.3%
[2]
  viability, T/C: 7.98%
[3]
  viability, T/C: 8.08%
[4]
  viability, T/C: 5.73%
[5]
  viability, T/C: 1.45%
[6]
  viability, T/C: 0.47%
[7]
  viability, T/C: 2.88%
[8]
  viability, T/C: 3.1%
[9]
  viability, T/C: 2.8%
[10]
  viability, T/C: 2.56%
[11]
  viability, T/C: 1.27%
[12]
  viability, T/C: 0.3%
[13]
  viability, T/C: 2.53%
[14]
  viability, T/C: 2.44%
[15]
  viability, T/C: 2.23%
[16]
  viability, T/C: 2.14%
[17]
  viability, T/C: 1.02%
[18]
  viability, T/C: 0.26%
[19]
  viability, T/C: 1.61%
[20]
  viability, T/C: 1.69%
[21]
  viability, T/C: 1.67%
[22]
  viability, T/C: 1.34%
[23]
  viability, T/C: 1.18%
[24]
  viability, T/C: 0.25%
[25]
  viability, T/C: 1.48%
[26]
  viability, T/C: 1.31%
[27]
  viability, T/C: 1.3%
[28]
  viability, T/C: 1.31%
[29]
  viability, T/C: 0.93%
[30]
  viability, T/C: 0.28%

## COc1ccc([C@@H](O)c2cc(-c3ncnc4cc(N5CCOCC5)ccc34)c(F)cc2Cl)nn1 + CC[C@@]1(O)C(=O)OCc2c1cc1n(c2=O)Cc2cc3c(CN(C)C)c(O)ccc3nc2-1
Second compound 0.003 µM
  IC50: 1770 nM
Second compound 0.00949 µM
  IC50: < 31.6 nM
Second compound 0.03 µM
  IC50: < 31.6 nM
Second compound 0.0949 µM
  IC50: < 31.6 nM
Second compound 0.3 µM
  IC50: < 31.6 nM
[1]
  viability, T/C: 94.3%
[2]
  viability, T/C: 99.1%
[3]
  viability, T/C: 94.7%
[4]
  viability, T/C: 87.6%
[5]
  viability, T/C: 11.8%
[6]
  viability, T/C: 2.63%
[7]
  viability, T/C: 41.7%
[8]
  viability, T/C: 33.1%
[9]
  viability, T/C: 44.8%
[10]
  viability, T/C: 17.1%
[11]
  viability, T/C: 1.57%
[12]
  viability, T/C: 0.79%
[13]
  viability, T/C: 1.67%
[14]
  viability, T/C: 1.43%
[15]
  viability, T/C: 1.42%
[16]
  viability, T/C: 0.87%
[17]
  viability, T/C: 0.63%
[18]
  viability, T/C: 0.71%
[19]
  viability, T/C: 1.2%
[20]
  viability, T/C: 1.26%
[21]
  viability, T/C: 1.18%
[22]
  viability, T/C: 1.01%
[23]
  viability, T/C: 0.75%
[24]
  viability, T/C: 0.54%
[25]
  viability, T/C: 1.43%
[26]
  viability, T/C: 1.86%
[27]
  viability, T/C: 1.46%
[28]
  viability, T/C: 0.88%
[29]
  viability, T/C: 0.2%
[30]
  viability, T/C: 0.21%

## O=C(c1cc(Cc2n[nH]c(=O)c3ccccc23)ccc1F)N1CCN(C(=O)C2CC2)CC1 + COc1cc2c(cc1O)CCNC21CSC2c3c(OC(C)=O)c(C)c4c(c3C(COC1=O)N1C(O)C3Cc5cc(C)c(OC)c(O)c5C(C21)N3C)OCO4
Second compound 30 pM
  IC50: 1590 nM
Second compound 94.9 pM
  IC50: 575 nM
Second compound 0.0003 µM
  IC50: < 94.9 nM
Second compound 0.000949 µM
  IC50: < 94.9 nM
Second compound 0.003 µM
  IC50: < 94.9 nM
Second compound 30 pM, first compound 0.0949 µM
  viability, T/C: 101%
Second compound 30 pM, first compound 0.3 µM
  viability, T/C: 92.3%
Second compound 30 pM, first compound 0.949 µM
  viability, T/C: 84.7%
Second compound 30 pM, first compound 3 µM
  viability, T/C: 7.77%
Second compound 30 pM, first compound 9.49 µM
  viability, T/C: 2.16%
Second compound 30 pM, first compound 30 µM
  viability, T/C: 1.89%
Second compound 94.9 pM, first compound 0.0949 µM
  viability, T/C: 85.9%
Second compound 94.9 pM, first compound 0.3 µM
  viability, T/C: 79.7%
Second compound 94.9 pM, first compound 0.949 µM
  viability, T/C: 27.2%
Second compound 94.9 pM, first compound 3 µM
  viability, T/C: 4.14%
Second compound 94.9 pM, first compound 9.49 µM
  viability, T/C: 1.87%
Second compound 94.9 pM, first compound 30 µM
  viability, T/C: 1.22%
Second compound 0.0003 µM, first compound 0.0949 µM
  viability, T/C: 6.93%
Second compound 0.0003 µM, first compound 0.3 µM
  viability, T/C: 3.52%
Second compound 0.0003 µM, first compound 0.949 µM
  viability, T/C: 2.62%
Second compound 0.0003 µM, first compound 3 µM
  viability, T/C: 1.83%
Second compound 0.0003 µM, first compound 9.49 µM
  viability, T/C: 1.18%
Second compound 0.0003 µM, first compound 30 µM
  viability, T/C: 1.45%
Second compound 0.000949 µM, first compound 0.0949 µM
  viability, T/C: 0.91%
Second compound 0.000949 µM, first compound 0.3 µM
  viability, T/C: 0.86%
Second compound 0.000949 µM, first compound 0.949 µM
  viability, T/C: 0.95%
Second compound 0.000949 µM, first compound 3 µM
  viability, T/C: 0.68%
Second compound 0.000949 µM, first compound 9.49 µM
  viability, T/C: 0.61%
Second compound 0.000949 µM, first compound 30 µM
  viability, T/C: 0.39%
Second compound 0.003 µM, first compound 0.0949 µM
  viability, T/C: 3.53%
Second compound 0.003 µM, first compound 0.3 µM
  viability, T/C: 0.25%
Second compound 0.003 µM, first compound 0.949 µM
  viability, T/C: 0.21%
Second compound 0.003 µM, first compound 3 µM
  viability, T/C: 0.22%
Second compound 0.003 µM, first compound 9.49 µM
  viability, T/C: 0.24%
Second compound 0.003 µM, first compound 30 µM
  viability, T/C: 0.31%
